Read-outs that look alike come from different tables or passages of the source.
Legend:
Test in all cases: Kinase inhibitory activity profiling of RI-962@10 µM (406 kinases, Eurofins)
Type in all cases: biochemical
[1] = molecular target: panel of human kinases (kinase named in endpoint) (Homo sapiens, UniProt Q08345); settings: 10 µM; read-out: Activity (%), DDR1(h)
In short: (§1)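 Radiometric filter-binding kinase assays: enzyme preincubated 15 min with compound in 8 mM MOPS pH 7.0, 0.2 mM EDTA, 250 μM peptide substrate, 10 mM magnesium acetate, 10 μM [γ-33P]-ATP. Reaction started with Mg/ATP, run 40 min at room temperature, stopped with phosphoric acid; 33P incorporation read by scintillation counting. Other kinases by similar protocols.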

[2] = molecular target: panel of human kinases (kinase named in endpoint) (Homo sapiens, UniProt Q8WTQ7); settings: 10 µM; read-out: Activity (%), GRK7(h)
In short: as §1

[3] = molecular target: panel of human kinases (kinase named in endpoint) (Homo sapiens, UniProt O75385); settings: 10 µM; read-out: Activity (%), ULK1(h)
In short: as §1

[4] = molecular target: panel of human kinases (kinase named in endpoint) (Homo sapiens, UniProt Q13873); settings: 10 µM; read-out: Activity (%), BMPR2(h)
In short: as §1

[5] = molecular target: panel of human kinases (kinase named in endpoint) (Homo sapiens, UniProt Q14289); settings: 10 µM; read-out: Activity (%), Pyk2(h)
In short: as §1

[6] = molecular target: panel of human kinases (kinase named in endpoint) (Homo sapiens, UniProt P22694); settings: 10 µM; read-out: Activity (%), PKAcβ(h)
In short: as §1

[7] = molecular target: panel of human kinases (kinase named in endpoint) (Homo sapiens, UniProt Q9UM73); settings: 10 µM; read-out: Activity (%), ALK(h)
In short: as §1

[8] = molecular target: panel of human kinases (kinase named in endpoint) (Homo sapiens, UniProt P05771); settings: 10 µM; read-out: Activity (%), PKCβI(h)
In short: as §1

[9] = molecular target: panel of human kinases (kinase named in endpoint) (Homo sapiens, UniProt O95819); settings: 10 µM; read-out: Activity (%), MAP4K4(h)
In short: as §1

[10] = molecular target: panel of human kinases (kinase named in endpoint) (Homo sapiens, UniProt P11802); settings: 10 µM; read-out: Activity (%), CDK4/cyclinD3(h)
In short: as §1

[11] = molecular target: panel of human kinases (kinase named in endpoint) (Homo sapiens, UniProt Q92772); settings: 10 µM; read-out: Activity (%), CDKL2(h)
In short: as §1

[12] = molecular target: panel of human kinases (kinase named in endpoint) (Homo sapiens, UniProt Q9NQU5); settings: 10 µM; read-out: Activity (%), PAK6(h)
In short: as §1

[13] = molecular target: panel of human kinases (kinase named in endpoint) (Homo sapiens, UniProt P53355); settings: 10 µM; read-out: Activity (%), DAPK1(h)
In short: as §1

[14] = molecular target: panel of human kinases (kinase named in endpoint) (Homo sapiens, UniProt P51451); settings: 10 µM; read-out: Activity (%), Blk(h)
In short: as §1

[15] = molecular target: panel of human kinases (kinase named in endpoint) (Homo sapiens, UniProt Q8TDX7); settings: 10 µM; read-out: Activity (%), NEK7(h)
In short: as §1

[16] = molecular target: panel of human kinases (kinase named in endpoint) (Homo sapiens, UniProt P20794); settings: 10 µM; read-out: Activity (%), MAK(h)
In short: as §1

[17] = molecular target: panel of human kinases (kinase named in endpoint) (Homo sapiens, UniProt Q07002); settings: 10 µM; read-out: Activity (%), CDK18/cyclinY(h)
In short: as §1

[18] = molecular target: panel of human kinases (kinase named in endpoint) (Homo sapiens, UniProt P07948); settings: 10 µM; read-out: Activity (%), Lyn(h)
In short: as §1

[19] = molecular target: panel of human kinases (kinase named in endpoint) (Homo sapiens, UniProt Q00535); settings: 10 µM
In short: as §1

[20] = molecular target: panel of human kinases (kinase named in endpoint) (Homo sapiens, UniProt Q9HBY8); settings: 10 µM; read-out: Activity (%), SGK2(h)
In short: as §1

[21] = molecular target: panel of human kinases (kinase named in endpoint) (Homo sapiens, UniProt O75676); settings: 10 µM; read-out: Activity (%), MSK2(h)
In short: as §1

[22] = molecular target: panel of human kinases (kinase named in endpoint) (Homo sapiens, UniProt Q06418); settings: 10 µM; read-out: Activity (%), Rse(h)
In short: as §1

[23] = molecular target: panel of human kinases (kinase named in endpoint) (Homo sapiens, UniProt Q8NG66); settings: 10 µM; read-out: Activity (%), NEK11(h)
In short: as §1

[24] = molecular target: panel of human kinases (kinase named in endpoint) (Homo sapiens, UniProt P22607); settings: 10 µM; read-out: Activity (%), FGFR3(h)
In short: as §1

[25] = molecular target: panel of human kinases (kinase named in endpoint) (Homo sapiens, UniProt P00533, L858R/T790M); settings: 10 µM; read-out: Activity (%), EGFR(T790M,L858R)(h)
In short: as §1

[26] = molecular target: panel of human kinases (kinase named in endpoint) (Homo sapiens, UniProt Q13043); settings: 10 µM; read-out: Activity (%), MST1(h)
In short: as §1

Sequence of panel of human kinases (kinase named in endpoint) (Homo sapiens, UniProt Q00535) (Q00535 whole entry): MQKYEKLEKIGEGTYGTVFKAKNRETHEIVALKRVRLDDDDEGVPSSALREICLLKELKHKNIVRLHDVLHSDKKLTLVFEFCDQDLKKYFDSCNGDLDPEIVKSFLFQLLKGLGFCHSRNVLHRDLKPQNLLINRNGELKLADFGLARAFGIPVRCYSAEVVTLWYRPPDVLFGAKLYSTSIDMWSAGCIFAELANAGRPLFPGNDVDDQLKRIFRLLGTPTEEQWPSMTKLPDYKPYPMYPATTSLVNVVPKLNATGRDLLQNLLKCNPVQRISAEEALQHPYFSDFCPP
Sequence of panel of human kinases (kinase named in endpoint) (Homo sapiens, UniProt O95819) (O95819 whole entry): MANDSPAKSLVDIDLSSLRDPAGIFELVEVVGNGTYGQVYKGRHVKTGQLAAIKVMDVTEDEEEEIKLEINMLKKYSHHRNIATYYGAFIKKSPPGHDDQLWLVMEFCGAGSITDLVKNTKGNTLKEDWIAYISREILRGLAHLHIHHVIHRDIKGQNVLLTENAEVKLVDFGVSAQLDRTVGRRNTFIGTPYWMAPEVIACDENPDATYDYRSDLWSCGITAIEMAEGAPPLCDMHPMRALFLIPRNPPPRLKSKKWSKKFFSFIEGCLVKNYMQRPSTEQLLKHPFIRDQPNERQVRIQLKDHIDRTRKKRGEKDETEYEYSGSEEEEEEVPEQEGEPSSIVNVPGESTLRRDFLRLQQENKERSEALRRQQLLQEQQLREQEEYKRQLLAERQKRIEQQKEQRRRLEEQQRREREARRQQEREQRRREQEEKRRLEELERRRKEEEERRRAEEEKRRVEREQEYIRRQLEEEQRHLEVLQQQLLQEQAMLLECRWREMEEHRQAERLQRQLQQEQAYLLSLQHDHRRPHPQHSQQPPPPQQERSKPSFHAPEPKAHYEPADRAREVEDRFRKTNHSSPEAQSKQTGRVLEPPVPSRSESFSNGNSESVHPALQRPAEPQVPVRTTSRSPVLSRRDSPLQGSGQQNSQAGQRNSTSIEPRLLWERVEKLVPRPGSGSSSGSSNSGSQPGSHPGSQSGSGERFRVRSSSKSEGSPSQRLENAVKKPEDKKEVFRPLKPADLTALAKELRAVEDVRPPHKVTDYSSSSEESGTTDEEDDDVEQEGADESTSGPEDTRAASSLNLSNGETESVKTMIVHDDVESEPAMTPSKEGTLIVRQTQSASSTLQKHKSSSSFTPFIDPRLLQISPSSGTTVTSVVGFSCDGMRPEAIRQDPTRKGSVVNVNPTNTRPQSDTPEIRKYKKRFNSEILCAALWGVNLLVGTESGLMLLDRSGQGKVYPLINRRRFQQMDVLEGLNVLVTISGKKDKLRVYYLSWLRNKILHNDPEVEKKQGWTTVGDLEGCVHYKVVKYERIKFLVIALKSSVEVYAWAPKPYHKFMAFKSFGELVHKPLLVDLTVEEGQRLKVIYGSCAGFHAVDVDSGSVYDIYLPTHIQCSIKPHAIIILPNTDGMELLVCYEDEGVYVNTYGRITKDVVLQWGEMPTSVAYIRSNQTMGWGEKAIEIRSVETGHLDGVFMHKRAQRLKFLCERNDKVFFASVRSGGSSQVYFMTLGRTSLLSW
Sequence of panel of human kinases (kinase named in endpoint) (Homo sapiens, UniProt P11802) (P11802 whole entry): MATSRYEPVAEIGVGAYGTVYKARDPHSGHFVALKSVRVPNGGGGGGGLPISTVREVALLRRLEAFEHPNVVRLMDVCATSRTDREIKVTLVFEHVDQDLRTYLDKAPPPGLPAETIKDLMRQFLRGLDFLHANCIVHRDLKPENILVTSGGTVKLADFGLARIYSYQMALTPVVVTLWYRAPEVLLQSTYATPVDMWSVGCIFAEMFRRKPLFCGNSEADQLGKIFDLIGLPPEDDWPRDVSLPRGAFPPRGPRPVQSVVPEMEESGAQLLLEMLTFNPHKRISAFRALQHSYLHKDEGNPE
Sequence of panel of human kinases (kinase named in endpoint) (Homo sapiens, UniProt O75385) (O75385 whole entry): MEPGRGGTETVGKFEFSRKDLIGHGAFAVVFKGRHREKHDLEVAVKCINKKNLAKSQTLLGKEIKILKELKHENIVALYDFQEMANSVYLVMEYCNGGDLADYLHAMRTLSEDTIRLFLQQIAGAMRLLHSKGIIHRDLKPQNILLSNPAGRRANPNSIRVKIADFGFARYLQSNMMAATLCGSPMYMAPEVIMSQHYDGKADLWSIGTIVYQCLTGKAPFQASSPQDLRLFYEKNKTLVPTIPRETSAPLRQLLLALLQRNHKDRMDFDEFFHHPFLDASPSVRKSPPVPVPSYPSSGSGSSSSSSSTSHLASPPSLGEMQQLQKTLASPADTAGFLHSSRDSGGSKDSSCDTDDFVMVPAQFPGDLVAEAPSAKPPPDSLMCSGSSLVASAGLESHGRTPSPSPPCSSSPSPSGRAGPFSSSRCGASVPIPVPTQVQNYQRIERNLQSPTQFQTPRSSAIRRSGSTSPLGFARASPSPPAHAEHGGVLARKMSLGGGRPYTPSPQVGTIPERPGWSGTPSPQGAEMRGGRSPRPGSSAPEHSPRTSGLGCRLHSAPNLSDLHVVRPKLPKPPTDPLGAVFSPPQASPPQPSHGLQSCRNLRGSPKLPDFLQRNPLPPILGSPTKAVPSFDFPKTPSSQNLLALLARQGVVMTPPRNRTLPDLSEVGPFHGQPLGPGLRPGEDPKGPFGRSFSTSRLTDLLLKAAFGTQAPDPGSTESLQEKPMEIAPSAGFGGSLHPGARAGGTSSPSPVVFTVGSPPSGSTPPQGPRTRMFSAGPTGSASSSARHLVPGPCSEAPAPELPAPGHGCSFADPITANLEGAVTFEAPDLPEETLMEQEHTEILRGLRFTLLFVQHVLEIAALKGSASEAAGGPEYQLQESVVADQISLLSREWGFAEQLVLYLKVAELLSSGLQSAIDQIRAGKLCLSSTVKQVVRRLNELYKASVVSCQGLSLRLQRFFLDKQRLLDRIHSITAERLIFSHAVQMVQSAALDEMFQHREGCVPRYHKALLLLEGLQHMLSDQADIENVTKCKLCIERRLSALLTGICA
Sequence of panel of human kinases (kinase named in endpoint) (Homo sapiens, UniProt Q13043) (Q13043 whole entry): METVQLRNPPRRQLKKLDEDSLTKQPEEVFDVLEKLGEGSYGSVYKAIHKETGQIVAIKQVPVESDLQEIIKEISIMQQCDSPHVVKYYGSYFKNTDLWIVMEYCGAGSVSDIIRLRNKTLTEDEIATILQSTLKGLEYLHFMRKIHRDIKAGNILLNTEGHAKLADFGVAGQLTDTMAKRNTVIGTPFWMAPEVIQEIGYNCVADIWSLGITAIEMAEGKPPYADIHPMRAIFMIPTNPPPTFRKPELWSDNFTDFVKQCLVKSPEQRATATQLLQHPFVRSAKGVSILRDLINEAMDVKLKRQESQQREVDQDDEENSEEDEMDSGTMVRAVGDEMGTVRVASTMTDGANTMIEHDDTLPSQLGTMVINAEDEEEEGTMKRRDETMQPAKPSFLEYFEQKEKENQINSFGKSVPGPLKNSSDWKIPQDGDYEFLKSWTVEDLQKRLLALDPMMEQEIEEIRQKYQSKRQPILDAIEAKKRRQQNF
Sequence of panel of human kinases (kinase named in endpoint) (Homo sapiens, UniProt Q13873) (Q13873 27-1038): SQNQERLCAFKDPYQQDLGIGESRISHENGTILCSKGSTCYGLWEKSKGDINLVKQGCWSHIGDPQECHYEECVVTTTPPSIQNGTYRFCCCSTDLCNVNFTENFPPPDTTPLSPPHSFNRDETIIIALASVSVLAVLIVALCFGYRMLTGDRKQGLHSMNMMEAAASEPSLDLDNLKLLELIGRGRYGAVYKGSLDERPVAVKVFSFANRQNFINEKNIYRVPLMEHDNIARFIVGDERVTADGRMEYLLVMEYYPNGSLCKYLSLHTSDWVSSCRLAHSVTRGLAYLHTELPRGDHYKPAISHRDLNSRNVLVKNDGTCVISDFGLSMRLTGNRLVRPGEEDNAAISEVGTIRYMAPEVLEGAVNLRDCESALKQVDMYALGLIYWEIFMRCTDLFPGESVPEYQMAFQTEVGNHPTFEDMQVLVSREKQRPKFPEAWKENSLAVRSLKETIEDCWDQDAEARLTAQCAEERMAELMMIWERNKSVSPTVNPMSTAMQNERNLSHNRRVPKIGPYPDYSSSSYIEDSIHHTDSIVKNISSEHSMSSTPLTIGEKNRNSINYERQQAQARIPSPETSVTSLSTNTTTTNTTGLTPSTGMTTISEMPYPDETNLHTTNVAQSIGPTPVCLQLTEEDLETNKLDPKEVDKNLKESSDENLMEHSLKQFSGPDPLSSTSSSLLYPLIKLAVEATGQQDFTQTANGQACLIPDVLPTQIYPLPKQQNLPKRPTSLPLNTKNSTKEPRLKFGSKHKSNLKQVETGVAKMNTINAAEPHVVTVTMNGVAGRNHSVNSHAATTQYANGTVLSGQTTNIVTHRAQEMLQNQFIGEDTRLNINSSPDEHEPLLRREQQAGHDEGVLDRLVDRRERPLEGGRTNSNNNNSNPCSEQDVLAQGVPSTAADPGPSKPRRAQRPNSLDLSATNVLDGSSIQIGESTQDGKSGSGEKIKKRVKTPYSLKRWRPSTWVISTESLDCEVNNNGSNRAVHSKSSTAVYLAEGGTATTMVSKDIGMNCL
Sequence of panel of human kinases (kinase named in endpoint) (Homo sapiens, UniProt Q92772) (Q92772 whole entry): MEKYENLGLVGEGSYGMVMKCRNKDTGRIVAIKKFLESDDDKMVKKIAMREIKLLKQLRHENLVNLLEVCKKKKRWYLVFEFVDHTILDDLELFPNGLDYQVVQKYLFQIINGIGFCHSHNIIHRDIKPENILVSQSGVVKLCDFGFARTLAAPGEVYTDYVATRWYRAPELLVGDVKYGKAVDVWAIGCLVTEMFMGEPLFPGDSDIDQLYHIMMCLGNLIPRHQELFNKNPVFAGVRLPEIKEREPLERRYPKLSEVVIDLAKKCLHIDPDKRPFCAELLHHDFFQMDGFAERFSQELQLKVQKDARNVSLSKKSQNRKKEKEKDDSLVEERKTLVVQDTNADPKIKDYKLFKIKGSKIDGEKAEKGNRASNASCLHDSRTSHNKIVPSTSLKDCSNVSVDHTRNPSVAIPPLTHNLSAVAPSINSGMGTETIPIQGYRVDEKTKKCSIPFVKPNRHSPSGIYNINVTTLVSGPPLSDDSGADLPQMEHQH

CC(C)C(=O)Nc1nc2cc(-c3ccc4c(c3)c(C(=O)NC(C)c3ccccc3)cn4C)ccn2n1 (stereo not drawn) [RI-962]
activity at 10 µM [1]: 104%
activity at 10 µM [2]: 60%
activity at 10 µM [3]: 69%
activity at 10 µM [4]: 105%
activity at 10 µM [5]: 106%
activity at 10 µM [6]: 117%
activity at 10 µM [7]: 68%
activity at 10 µM [8]: 120%
activity at 10 µM [9]: 88%
activity at 10 µM [10]: 75%
activity at 10 µM [11]: 77%
activity at 10 µM [12]: 87%
activity at 10 µM [13]: 95%
activity at 10 µM [14]: 96%
activity at 10 µM [15]: 85%
activity at 10 µM [16]: 126%
activity at 10 µM [17]: 119%
activity at 10 µM [18]: 65%
activity at 10 µM ([19]; read-out: Activity (%), CDK5/p25(h)): 92%
activity at 10 µM ([19]; read-out: Activity (%), CDK5/p35(h)): 118%
activity at 10 µM [20]: 120%
activity at 10 µM [21]: 94%
activity at 10 µM [22]: 108%
activity at 10 µM [23]: 89%
activity at 10 µM [24]: 72%
activity at 10 µM [25]: 85%
activity at 10 µM [26]: 95%
